Source: ChEMBL document CHEMBL4382233, “Discovery of novel arylethenesulfonyl fluorides as potential candidates against methicillin-resistant of Staphylococcus aureus (MRSA) for overcoming multidrug resistance of bacterial infections” (2019)
In brackets after ≈: the same amount, converted by molar mass.

What was measured:
Type in all cases: functional
Staphylococcus aureus [1] = assay: Antibacterial activity against methicillin-resistant Staphylococcus aureus assessed as zone of inhibition at 50 ug/mL after 24 hrs by agar disc diffusion method; settings: read-out: IZ
[2] = test system: Staphylococcus haemolyticus; assay: Antibacterial activity against methicillin-resistant Staphylococcus haemolyticus after overnight incubation by micro broth dilution analysis
[3] = test system: Staphylococcus epidermidis; assay: Antibacterial activity against methicillin-resistant Staphylococcus epidermidis after overnight incubation by micro broth dilution analysis
[4] = test system: Staphylococcus epidermidis; assay: Antibacterial activity against methicillin-resistant Staphylococcus epidermidis assessed as zone of inhibition at 800 ng/mL after 24 hrs by agar disc diffusion method; settings: read-out: IZ
[5] = test system: Staphylococcus haemolyticus; assay: Antibacterial activity against methicillin-resistant Staphylococcus haemolyticus assessed as zone of inhibition at 50 ug/mL after 24 hrs by agar disc diffusion method; settings: read-out: IZ
Staphylococcus aureus [6] = assay: Antibacterial activity against methicillin-resistant Staphylococcus aureus after overnight incubation by micro broth dilution analysis
[7] = test system: Staphylococcus epidermidis; assay: Antibacterial activity against methicillin-resistant Staphylococcus epidermidis assessed as zone of inhibition at 20 ug/mL after 24 hrs by agar disc diffusion method; settings: read-out: IZ
[8] = test system: Staphylococcus epidermidis; assay: Antibacterial activity against methicillin-resistant Staphylococcus epidermidis assessed as zone of inhibition at 400 ng/mL after 24 hrs by agar disc diffusion method; settings: read-out: IZ
[9] = test system: Staphylococcus epidermidis; assay: Antibacterial activity against methicillin-resistant Staphylococcus epidermidis assessed as zone of inhibition at 200 ng/mL after 24 hrs by agar disc diffusion method; settings: read-out: IZ
Staphylococcus aureus [10] = assay: Antibacterial activity against methicillin-resistant Staphylococcus aureus assessed as zone of inhibition at 400 ng/mL after 24 hrs by agar disc diffusion method; settings: read-out: IZ
[11] = test system: Staphylococcus haemolyticus; assay: Antibacterial activity against methicillin-resistant Staphylococcus haemolyticus assessed as zone of inhibition at 800 ng/mL after 24 hrs by agar disc diffusion method; settings: read-out: IZ
[12] = test system: Staphylococcus haemolyticus; assay: Antibacterial activity against methicillin-resistant Staphylococcus haemolyticus assessed as zone of inhibition at 400 ng/mL after 24 hrs by agar disc diffusion method; settings: read-out: IZ
Staphylococcus aureus [13] = assay: Antibacterial activity against methicillin-resistant Staphylococcus aureus assessed as zone of inhibition at 200 ng/mL after 24 hrs by agar disc diffusion method; settings: read-out: IZ
Staphylococcus aureus [14] = assay: Antibacterial activity against methicillin-resistant Staphylococcus aureus assessed as zone of inhibition at 800 ng/mL after 24 hrs by agar disc diffusion method; settings: read-out: IZ
[15] = test system: Staphylococcus haemolyticus; assay: Antibacterial activity against methicillin-resistant Staphylococcus haemolyticus assessed as zone of inhibition at 200 ng/mL after 24 hrs by agar disc diffusion method; settings: read-out: IZ

SMILES | zone of inhibition at 50 µg/mL (Staphylococcus aureus [1]) [mm] | MIC99 [2] [µg/mL] | MIC99 [3] [µg/mL] | zone of inhibition at 0.8 µg/mL [4] [mm] | zone of inhibition at 50 µg/mL [5] [mm] | MIC99 (Staphylococcus aureus [6]) [µg/mL] | zone of inhibition at 20 µg/mL [7] [mm] | zone of inhibition at 0.4 µg/mL [8] [mm] | zone of inhibition at 0.2 µg/mL [9] [mm] | zone of inhibition at 0.4 µg/mL (Staphylococcus aureus [10]) [mm] | zone of inhibition at 0.8 µg/mL [11] [mm] | zone of inhibition at 0.4 µg/mL [12] [mm] | zone of inhibition at 0.2 µg/mL (Staphylococcus aureus [13]) [mm] | zone of inhibition at 0.8 µg/mL (Staphylococcus aureus [14]) [mm] | zone of inhibition at 0.2 µg/mL [15] [mm]
O=S(=O)(F)/C=C/C=C/c1cccc(C(F)(F)F)c1 | 6.2 | 55 (≈ 196 µM) | 0.822 (≈ 2.93 µM) | 8.5 | 4.5 | 44.1 (≈ 157 µM) | 8.5 | 7.1 | 6.2 |  |  |  |  |  | 
O=S(=O)(F)/C=C/c1ccc(Br)cc1 | 7.5 | 66.1 (≈ 249 µM) | 0.837 (≈ 3.16 µM) | 7.5 | 6.1 | 48.2 (≈ 182 µM) | 7.3 | 6.2 | 5.2 |  |  |  |  |  | 
O=Cc1cccc(/C=C/S(=O)(=O)F)c1 | 10.3 | 0.828 (≈ 3.87 µM) | 41.1 (≈ 192 µM) |  | 8.2 | 17.2 (≈ 80.2 µM) | 6.5 |  |  | 3.5 | 6.1 | 5.1 | 3.1 | 4.2 | 2.2
CC(=O)c1ccccc1/C=C/S(=O)(=O)F | 8.2 | 50.2 (≈ 220 µM) | 0.816 (≈ 3.58 µM) | 10.5 | 4.1 | 16.1 (≈ 70.7 µM) | 10.2 | 4.2 | 3.3 | 4.1 |  |  | 3.5 | 5.4 | 
CC(C)c1cccc(/C=C/S(=O)(=O)F)c1 | 20.1 | 43 (≈ 189 µM) | 0.81 (≈ 3.55 µM) | 15.1 | 4.2 | 16.1 (≈ 70.3 µM) | 18 | 12.2 | 9.2 | 3.5 |  |  | 3.1 | 4.2 | 
Cc1ccccc1/C=C/S(=O)(=O)F | 15.4 | 54.1 (≈ 270 µM) | 17.2 (≈ 85.8 µM) | 4.5 | 5.4 | 0.849 (≈ 4.24 µM) | 15.3 | 3.4 | 2.2 | 5.1 |  |  | 4.2 | 6.4 | 
O=[N+]([O-])c1ccccc1/C=C/C=C/S(=O)(=O)F | 5.5 | 16.2 (≈ 62.8 µM) | 44 (≈ 171 µM) |  | 6.5 | 47 (≈ 183 µM) | 6.2 |  |  |  | 5.2 | 4.2 |  |  | 3.2
CC(=O)c1ccc(/C=C/S(=O)(=O)F)cc1 | 14.1 | 0.84 (≈ 3.68 µM) | 54.2 (≈ 237 µM) |  | 7.2 | 0.822 (≈ 3.6 µM) | 6.5 |  |  | 8.2 | 6.1 | 5.2 | 6.2 | 10.2 | 3.3
O=S(=O)(F)/C=C/c1ccc(C(F)(F)F)cc1 | 9.1 | 60.2 (≈ 237 µM) | 0.812 (≈ 3.19 µM) | 11.4 | 3.5 | 0.815 (≈ 3.21 µM) | 12.1 | 10.1 | 9.1 | 10.1 |  |  | 6.2 | 15.1 | 
O=S(=O)(F)/C=C/c1cc(O)cc(O)c1 | 12.2 | 49 (≈ 225 µM) | 0.846 (≈ 3.88 µM) | 6.2 | 4.2 | 17 (≈ 78 µM) | 9.3 | 4.2 | 3.1 | 4.2 |  |  | 3.5 | 4.5 | 
O=S(=O)(F)/C=C/c1cccc(I)c1 | 12.3 | 23.1 (≈ 74.2 µM) | 0.825 (≈ 2.64 µM) | 8.1 | 8.2 | 46 (≈ 148 µM) | 8.2 | 7.1 | 6.1 |  | 3.2 | 0 |  |  | 0
Cc1cccc(/C=C/S(=O)(=O)F)c1 | 10.1 | 0.812 (≈ 4.06 µM) | 57.2 (≈ 286 µM) |  | 12.2 | 0.844 (≈ 4.22 µM) | 3.5 |  |  | 5.2 | 10.3 | 8.2 | 4.3 | 6.2 | 6.1
CSc1ccc(/C=C/S(=O)(=O)F)cc1 | 6.2 | 0.838 (≈ 3.61 µM) | 0.835 (≈ 3.59 µM) |  | 8.2 | 41.1 (≈ 177 µM) | 6.4 |  |  |  | 7.4 | 5.2 |  |  | 3.1
O=S(=O)(F)/C=C/c1cc(C(F)(F)F)cc(C(F)(F)F)c1 | 14.4 | 18.1 (≈ 56.3 µM) | 60.2 (≈ 187 µM) |  | 7.1 | 0.814 (≈ 2.53 µM) | 6.5 |  |  | 7.1 | 4.2 | 3.1 | 6.2 | 10.3 | 0
O=S(=O)(F)/C=C/C=C/c1cccc(F)c1 | 7.2 | 50.1 (≈ 218 µM) | 0.82 (≈ 3.56 µM) | 8.3 | 5.5 | 48 (≈ 209 µM) | 8.3 | 6.1 | 4.2 |  |  |  |  |  | 
COc1cc(/C=C/S(=O)(=O)F)cc(OC)c1 | 18.1 | 50 (≈ 203 µM) | 57.1 (≈ 232 µM) |  | 4.5 | 0.81 (≈ 3.29 µM) | 5.3 |  |  | 13.1 |  |  | 1.2 | 15.1 | 
Cc1ccc(/C=C/S(=O)(=O)F)c(C)c1 | 6.5 | 43.3 (≈ 202 µM) | 0.813 (≈ 3.79 µM) | 11.1 | 3.5 | 43.1 (≈ 201 µM) | 10.7 | 6.2 | 2.5 |  |  |  |  |  | 
O=S(=O)(F)/C=C/c1cccc(Br)c1 | 17.1 | 16.1 (≈ 60.8 µM) | 58.2 (≈ 219 µM) |  | 8.5 | 0.813 (≈ 3.07 µM) | 4.5 |  |  | 10.1 | 52 | 42 | 5.1 | 12 | 32
O=S(=O)(F)/C=C/c1ccsc1 | 8.2 | 48 (≈ 250 µM) | 66.1 (≈ 344 µM) |  | 4.52 | 16.6 (≈ 86.4 µM) | 8.5 |  |  | 4.2 |  |  | 3.2 | 4.5 | 
O=S(=O)(F)/C=C/c1ccc(OC(F)(F)F)cc1 | 6.1 | 61.2 (≈ 227 µM) | 0.81 (≈ 3 µM) | 10.4 | 4.3 | 40.2 (≈ 149 µM) | 17.6 | 8.3 | 7.1 |  |  |  |  |  | 
O=S(=O)(F)/C=C/c1ccc(O)cc1 | 10.2 | 57.1 (≈ 283 µM) | 45 (≈ 223 µM) |  | 3.5 | 16.1 (≈ 79.4 µM) | 4.5 |  |  | 4.3 |  |  | 3.2 | 5.2 | 
O=S(=O)(F)/C=C/c1cccc(C(F)(F)F)c1 | 10.1 | 43.2 (≈ 170 µM) | 40.1 (≈ 158 µM) |  | 4.2 | 0.836 (≈ 3.29 µM) | 4.1 |  |  | 5.4 |  |  | 4.1 | 7.7 | 
O=S(=O)(F)/C=C/c1cccc(F)c1 | 9.1 | 44.1 (≈ 216 µM) | 72.3 (≈ 354 µM) |  | 4.2 | 15.2 (≈ 74.3 µM) | 3.5 |  |  | 4.4 |  |  | 3.5 | 5.1 | 
